Assay [1] relates to latently HIV-1 infected EF7 and CA5 T cells. As to conditions: PMA stimulation; cited from earlier work.
Assay [2] relates to latent HIV-1 infection in CA5 T cells. In kind it is cell-based. The note with it: for HIV-1 reactivation in combination with disulfiram: 24 hour pretreatment with bortezomib, disulfiram titrated, FIG. 3; for HIV-1 reactivation in combination with disulfiram / HIV-1 reactivation in combination with bryostatin: read 24 hours after addition; for HIV-1 reactivation in combination with bryostatin: 24 hour pretreatment with proteasome inhibitor, bryostatin titrated; for HIV-1 reactivation by the proteasome inhibitor by itself: CA5 T cells pretreated 24 hours. Here is the method: Increased protein-ubiquitination for targeting to the proteasome by the E3 ubiquitin ligase GRAIL is a hallmark of T cell anergy. […] FIG. 2B is a graph showing bortezomib in combination with the activator bryostatin. FIG. 2C is a graph showing bortezomib in combination with the activator prostratin.
CA5 T cells were pretreated for 24 hours with bortezomib. Disulfiram was titrated on control cells or bortezomib pretreated T cells. Reactivation was measured 24 hours after disulfiram addition by determining the percentage of GFP-positive cells using flow cytometric analysis.
CA5 T cells were pretreated for 24 hours with carfilzomib. Bryostatin was titrated on control cells or carfilzomib pretreated T cells. Reactivation was measured 24 hours after bryostatin addition by determining the percentage of GFP-positive cells using flow cytometric analysis.
As mentioned above, T cell anergy has been reported to be associated with a series of changes in the kinase activity profile. A hallmark of T cell anergy is the expression of GRAIL (gene related to anergy in lymphocytes), a trans-membrane RING finger ubiquitin E3 ligase (Anandasabapathy et al., Immunity 18:535-547 (2003)). As other ubiquitin ligases, GRAIL tags proteins for degradation by the proteasome. […] In order to determine this, two FDA-approved proteasome inhibitors, bortezomib and carfilzomib, were tested for their ability to mobilize latent HIV-1 infection, either by themselves, or in combination with potentially therapeutically relevant known HIV-1 reactivating activators, such as bryostatin, prostratin, and disulfiram.

Assay [3] has as its system latent HIV-1 infection in J2574 reporter T cells. Nature of the assay: Establishment of latent HIV-1 infection in J2574 reporter T cells after ionomycin pretreatment. The assay is classed as cell-based. The note with it: ionomycin pretreatment of J2574 T cells versus untreated control, independent of the level of virus input, FIG. 2A. The text has this: FIGS. 2A, 2B, and 2C show targeting anergy-related mechanisms alters HIV-1 latency control. […] Increased protein-ubiquitination for targeting to the proteasome by the E3 ubiquitin ligase GRAIL is a hallmark of T cell anergy. […] FIG. 2B is a graph showing bortezomib in combination with the activator bryostatin. FIG. 2C is a graph showing bortezomib in combination with the activator prostratin.
Without being bound by any theory, a working concept derived from the altered cellular phenotype observed in latently HIV-1 infected T cells could be that HIV-1 latency is correlated with the induction of a pseudoanergic state of the host-cell. HIV-1 infection has been reported to be associated with high levels of induced T cell anergy. Exposure to gp120 has been reported to be sufficient to trigger T cell anergy (Bouhdoud et al., Journal of Virology 74:2121-2130 (2000); Dybul et al., J. Immunol. 165:1685-91 (2000); Masci et al., Journal of Leukocyte Biology 74:1117-1124 (2003); and Schols and De Clercq, Journal of Virology 70:4953-4960 (1996)). Also, other retroviruses are reported to induce epigenetic changes in their host cells. Ubiquitin and CDK2 are also known to be involved in T cell anergy (Greenwald et al., Immunity 14:145-155 (2001); and Li et al., Nature Immunology 7:1157-65 (2006)). […]

The values that follow come from patent publication US20170014469A1, “METHODS OF RE[…] LATENT HUMAN IMMUNODEFICIENCY VIRUS” (priority 2013, published 2017).

The structures appear in SMILES notation. Entries after “also recorded” stand apart in the source; their conditions may differ. Read-outs that look alike come from different tables or passages of the source.

With `CCCCCCCCCCCCCC(=O)O[C@@H]1[C@@H](C)[C@@]2(O)[C@@H](C=C(CO)C[C@]3(O)C(=O)C(C)=C[C@@H]23)[C@@H]2C(C)(C)[C@]12OC(C)=O` [PMA, phorbol 12-myristate 13-acetate], the “reactivation at the population level” value in assay [1] is on record as greater than 90%.

For the compound `CC(C)C[C@H](NC(=O)[C@H](Cc1ccccc1)NC(=O)c1cnccn1)B(O)O` [bortezomib], the “HIV-1 reactivation in combination with prostratin” value in assay [2] (24 hour pretreatment with bortezomib (5 nM), prostratin titrated, CA5 T cells, FIG. 2C) is on record as “interacted with prostratin”. In addition, in assay [2] (CA5 T cells), the “HIV-1 reactivation in combination with disulfiram” value is “synergistically trigger HIV-1 reactivation” and the “HIV-1 reactivation in combination with bryostatin” value was “highly synergistic”. Also, the “HIV-1 reactivation in combination with disulfiram” value in assay [2] (CA5 T cells, listed as Bortezomib) is given as “interacted”. Besides, in assay [2] (24 hour pretreatment with proteasome inhibitor (bortezomib 5 nM), activators bryostatin or prostratin, CA5 T cells), the “activator concentrations required to trigger full HIV-1 reactivation at the population level” value is given as “reduces”. In addition, the “latently infected T cells in which latent HIV-1 infection was mobilized” value in assay [2] (bortezomib 5 nM by itself, CA5 T cells, FIG. 2B) is roughly 30%. The “HIV-1 reactivation by the proteasome inhibitor by itself” value in assay [2] is recorded as “mobilizes latent HIV-1 infection”.

On to `CC(C)C[C@H](NC(=O)[C@H](CCc1ccccc1)NC(=O)CN1CCOCC1)C(=O)N[C@@H](Cc1ccccc1)C(=O)N[C@@H](CC(C)C)C(=O)[C@@]1(C)CO1` [carfilzomib], for which the “HIV-1 reactivation in combination with bryostatin” value in assay [2] (CA5 T cells) is on record as “trigger HIV-1 reactivation”; in assay [2] (CA5 T cells, listed as Carfilzomib) it was “potently interacted”. Moreover, the “HIV-1 reactivation by the proteasome inhibitor by itself” value in assay [2] is recorded as “triggered HIV-1 reactivation”.

Consider `C[C@H](CCC(=O)O)C[C@H](C)C[C@H](C)C(=O)/C=C(\O)[C@H](C)C[C@H](C)C/C=C/[C@@H](C)[C@@H](O)[C@@H](C)[C@@H](O)C[C@@H]1CC[C@@](C)([C@H]2CC[C@@](C)([C@@H](C)O)O2)O1` [ionomycin], for which the “amount of established stable latent infection events” value in assay [3] is given as “promotes the establishment of latent HIV-1 infection; also recorded: almost doubled”.
